The supplement of paper PMC10307832

What follows are cell lines tested with COc1cccc2cc(-c3nc([C@H]4CC[C@H](C(=O)O)CC4)n4ncnc(N)c34)[nH]c12 [OSI-027] + N=C(N)NC(=N)NCCc1ccccc1 [Phenformin] (partner 250 µM) (assay: relative viability (nuclei count vs DMSO), 5 days (fraction); higher = more cells survive). Settings: first compound 0.01 µM.
How it was run: (§1)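 Medians of duplicate plates are given as relative viability. That measure is the nuclei count in treated wells divided by the count in vehicle wells. Counts were taken on 4× images of lung cancer cell lines in 1536-well plates, 5 days after pin-tool dosing the day after seeding with one drug alone or a fixed anchor-drug dose plus five library-drug doses (not always all listed) in √10 steps.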

Cell Line | relative viability
NCI-H2405 | 0.39
NCI-H1993 | 0.529
ChaGo-K-1 | 0.43
NCI-H1355 | 0.409
HCC-366 | 0.598
NCI-H1915 | 0.38
NCI-H838 | 0.588
A-427 | 0.296
NCI-H2009 | 0.477
EKVX | 0.238
NCI-H2087 | 0.495
NCI-H1734 | 0.398
LU99A | 0.777
NCI-H460 | 0.656
NCI-H2170 | 0.429
SK-LU-1 | 0.515
COR-L23 | 0.53
HCC-15 | 0.465

Cell Line | relative viability
NCI-H1944 | 0.2
EMC-BAC-2 | 0.513
NCI-H1792 | 0.126
NCI-H1395 | 0.446
LC-2-ad | 0.566
NCI-H2085 | 0.727
NCI-H727 | 0.569
NCI-H647 | 0.569
HARA | 0.439
NCI-H3122 | 0.409
COR-L 105 | 0.47
LCLC-97TM1 | 0.477
NCI-H520 | 0.581
NCI-H23 | 0.824
HCC-827 | 0.358
NCI-H2347 | 0.442
LXF-289 | 0.525
NCI-H1666 | 0.548

Same assay, conditions: first compound 0.03162 µM

Cell Line | relative viability
NCI-H2405 | 0.355
NCI-H1993 | 0.472
ChaGo-K-1 | 0.499
NCI-H1355 | 0.45
HCC-366 | 0.649
NCI-H1915 | 0.38
NCI-H838 | 0.62
A-427 | 0.332
NCI-H2009 | 0.48
EKVX | 0.205
NCI-H2087 | 0.492
NCI-H1734 | 0.398
LU99A | 0.844
NCI-H460 | 0.648
NCI-H2170 | 0.401
SK-LU-1 | 0.467
COR-L23 | 0.445
HCC-15 | 0.458

Cell Line | relative viability
NCI-H1944 | 0.222
EMC-BAC-2 | 0.543
NCI-H1792 | 0.168
NCI-H1395 | 0.431
LC-2-ad | 0.647
NCI-H2085 | 0.701
NCI-H727 | 0.546
NCI-H647 | 0.565
HARA | 0.425
NCI-H3122 | 0.41
COR-L 105 | 0.466
LCLC-97TM1 | 0.459
NCI-H520 | 0.456
NCI-H23 | 0.767
HCC-827 | 0.423
NCI-H2347 | 0.371
LXF-289 | 0.518
NCI-H1666 | 0.603

Same assay, conditions: first compound 0.1 µM

Cell Line | relative viability
NCI-H2405 | 0.338
NCI-H1993 | 0.492
ChaGo-K-1 | 0.436
NCI-H1355 | 0.46
HCC-366 | 0.637
NCI-H1915 | 0.359
NCI-H838 | 0.479
A-427 | 0.289
NCI-H2009 | 0.487
EKVX | 0.245
NCI-H2087 | 0.424
NCI-H1734 | 0.384
LU99A | 0.869
NCI-H460 | 0.567
NCI-H2170 | 0.431
SK-LU-1 | 0.447
COR-L23 | 0.476
HCC-15 | 0.45

Cell Line | relative viability
NCI-H1944 | 0.19
EMC-BAC-2 | 0.466
NCI-H1792 | 0.228
NCI-H1395 | 0.396
LC-2-ad | 0.51
NCI-H2085 | 0.704
NCI-H727 | 0.557
NCI-H647 | 0.475
HARA | 0.488
NCI-H3122 | 0.454
COR-L 105 | 0.479
LCLC-97TM1 | 0.332
NCI-H520 | 0.28
NCI-H23 | 0.808
HCC-827 | 0.408
NCI-H2347 | 0.293
LXF-289 | 0.543
NCI-H1666 | 0.556

Same assay, conditions: first compound 0.3162 µM

Cell Line | relative viability
NCI-H2405 | 0.327
NCI-H1993 | 0.546
ChaGo-K-1 | 0.409
NCI-H1355 | 0.407
HCC-366 | 0.659
NCI-H1915 | 0.381
NCI-H838 | 0.339
A-427 | 0.269
NCI-H2009 | 0.425
EKVX | 0.222
NCI-H2087 | 0.398
NCI-H1734 | 0.346
LU99A | 0.593
NCI-H460 | 0.542
NCI-H2170 | 0.436
SK-LU-1 | 0.318
COR-L23 | 0.445
HCC-15 | 0.389

Cell Line | relative viability
NCI-H1944 | 0.172
EMC-BAC-2 | 0.385
NCI-H1792 | 0.204
NCI-H1395 | 0.401
LC-2-ad | 0.509
NCI-H2085 | 0.623
NCI-H727 | 0.466
NCI-H647 | 0.415
HARA | 0.408
NCI-H3122 | 0.443
COR-L 105 | 0.351
LCLC-97TM1 | 0.246
NCI-H520 | 0.21
NCI-H23 | 0.669
HCC-827 | 0.4
NCI-H2347 | 0.262
LXF-289 | 0.484
NCI-H1666 | 0.639

Same assay, conditions: first compound 1 µM

Cell Line | relative viability
NCI-H2405 | 0.27
NCI-H1993 | 0.547
ChaGo-K-1 | 0.323
NCI-H1355 | 0.304
HCC-366 | 0.498
NCI-H1915 | 0.32
NCI-H838 | 0.28
A-427 | 0.297
NCI-H2009 | 0.277
EKVX | 0.195
NCI-H2087 | 0.271
NCI-H1734 | 0.238
LU99A | 0.292
NCI-H460 | 0.224
NCI-H2170 | 0.275
SK-LU-1 | 0.219
COR-L23 | 0.206
HCC-15 | 0.279

Cell Line | relative viability
NCI-H1944 | 0.137
EMC-BAC-2 | 0.263
NCI-H1792 | 0.173
NCI-H1395 | 0.369
LC-2-ad | 0.449
NCI-H2085 | 0.503
NCI-H727 | 0.407
NCI-H647 | 0.242
HARA | 0.261
NCI-H3122 | 0.288
COR-L 105 | 0.359
LCLC-97TM1 | 0.306
NCI-H520 | 0.187
NCI-H23 | 0.533
HCC-827 | 0.328
NCI-H2347 | 0.296
LXF-289 | 0.398
NCI-H1666 | 0.578

Each cell line was assayed with CCCS(=O)(=O)Nc1ccc(F)c(C(=O)c2c[nH]c3ncc(-c4ccc(Cl)cc4)cc23)c1F [Vemurafenib] + Nc1ncn([C@H]2C[C@H](O)[C@@H](CO)O2)c(=O)n1 [Decitabine] (partner 2 µM) in the same assay as above. Settings: first compound 0.03162 µM.
How it was run: as §1

Cell Line | relative viability
NCI-H2405 | 0.668
NCI-H1993 | 0.513
ChaGo-K-1 | 0.548
NCI-H1355 | 0.344
HCC-366 | 0.332
NCI-H1915 | 0.244
NCI-H838 | 0.467
A-427 | 0.553
NCI-H2009 | 0.394
EKVX | 0.368
NCI-H2087 | 0.198
NCI-H1734 | 0.569
LU99A | 0.843
NCI-H460 | 0.435
NCI-H2170 | 0.435
SK-LU-1 | 0.638
COR-L23 | 0.417
HCC-15 | 0.561

Cell Line | relative viability
NCI-H1944 | 0.488
EMC-BAC-2 | 0.958
NCI-H1792 | 0.539
NCI-H1395 | 0.726
LC-2-ad | 0.8
NCI-H2085 | 0.495
NCI-H727 | 0.688
NCI-H647 | 0.478
HARA | 0.458
NCI-H3122 | 0.429
COR-L 105 | 0.556
NCI-H520 | 0.463
NCI-H23 | 0.287
HCC-827 | 0.27
NCI-H2347 | 0.588
LXF-289 | 0.329
NCI-H1666 | 0.612

Same assay, conditions: first compound 0.1 µM

Cell Line | relative viability
NCI-H2405 | 0.678
ChaGo-K-1 | 0.47
NCI-H1355 | 0.348
HCC-366 | 0.327
NCI-H1915 | 0.253
NCI-H838 | 0.485
A-427 | 0.456
NCI-H2009 | 0.341
NCI-H2087 | 0.273
NCI-H1734 | 0.486
LU99A | 0.907
NCI-H460 | 0.511
SK-LU-1 | 0.588
COR-L23 | 0.464
HCC-15 | 0.64
EMC-BAC-2 | 0.934
NCI-H1792 | 0.564
NCI-H1395 | 0.698
LC-2-ad | 0.706
NCI-H2085 | 0.529
NCI-H727 | 0.762
NCI-H647 | 0.396
HARA | 0.368
NCI-H3122 | 0.485
LCLC-97TM1 | 0.236
NCI-H520 | 0.482
NCI-H23 | 0.272
NCI-H2347 | 0.538
LXF-289 | 0.303
NCI-H1666 | 0.724

Same assay, conditions: first compound 0.3162 µM

Cell Line | relative viability
NCI-H1993 | 0.651
ChaGo-K-1 | 0.493
NCI-H1355 | 0.363
NCI-H1915 | 0.26
NCI-H838 | 0.54
NCI-H2009 | 0.341
EKVX | 0.37
NCI-H2087 | 0.346
NCI-H1734 | 0.506
NCI-H460 | 0.485
NCI-H2170 | 0.441
SK-LU-1 | 0.504
COR-L23 | 0.336
HCC-15 | 0.59
NCI-H1944 | 0.45
NCI-H1395 | 0.706
LC-2-ad | 0.859
NCI-H2085 | 0.536
NCI-H727 | 0.964
NCI-H647 | 0.38
HARA | 0.673
NCI-H3122 | 0.481
COR-L 105 | 0.645
LCLC-97TM1 | 0.242
NCI-H520 | 0.479
NCI-H23 | 0.353
HCC-827 | 0.326
NCI-H2347 | 0.562
LXF-289 | 0.377
NCI-H1666 | 0.686

Same assay, conditions: first compound 1 µM

Cell Line | relative viability
NCI-H2405 | 0.736
NCI-H1993 | 0.713
ChaGo-K-1 | 0.512
NCI-H1355 | 0.37
HCC-366 | 0.333
NCI-H1915 | 0.244
NCI-H838 | 0.598
A-427 | 0.591
NCI-H2009 | 0.438
EKVX | 0.397
NCI-H2087 | 0.336
NCI-H1734 | 0.506
LU99A | 0.719
NCI-H460 | 0.501
NCI-H2170 | 0.455
SK-LU-1 | 0.56
COR-L23 | 0.424
HCC-15 | 0.77

Cell Line | relative viability
NCI-H1944 | 0.456
EMC-BAC-2 | 0.96
NCI-H1792 | 0.477
NCI-H1395 | 0.72
LC-2-ad | 0.796
NCI-H2085 | 0.597
NCI-H727 | 0.866
NCI-H647 | 0.444
HARA | 0.703
NCI-H3122 | 0.504
COR-L 105 | 0.651
LCLC-97TM1 | 0.213
NCI-H520 | 0.519
NCI-H23 | 0.322
HCC-827 | 0.35
NCI-H2347 | 0.613
LXF-289 | 0.35
NCI-H1666 | 0.764
